From patent US12187701B2, “Taire family kinase inhibitors and uses thereof” (Dana-Farber Cancer Institute, Inc., priority 2018, dated 2025)

How the values were obtained:
Cdk14/CycY = Cdk14/CycY (Homo sapiens (Human), UniProt O94921); test: Lanthascreen Eu kinase binding assay for Cdk14/CycY with 30 minute pre-incubation; conditions: 30 minute pre-incubation of kinase with compound; read-out: IC50 CDK14 binding by Lanthascreen
Experimental: Lanthascreen Eu kinase binding assays were conducted for Cdk14/CycY largely as performed in the commercial assay service by Life Technologies, but included a 30 minute pre-incubation step of the kinase with candidate compounds to facilitate covalent bond formation.

HCT116 cells = test: Antiproliferation assay, Cell Titer Glo, 72 hours; assay type: cell-based; conditions: Homo sapiens, HCT-116, 72 h
Experimental: HCT116 cells were plated in 384-well plates at 750 cells/well in 50 ul fresh media (McCoy's 5A+10% FBS+1% Penn/Strep) and treated with 0.1 μl candidate compounds in four-fold dilution series using the Janus pinner. Cells were incubated with compounds for 72 hours in 37° C. 5% CO2. Anti-proliferative effects of these compounds were assessed 72 hours after compound addition using Cell Titer Glo (Promega cat #G7571) as described in product manual by luminescence measurements using an Envision platereader. All proliferation assays were performed in biological quadruplicate. IC50 values were determined using a non-linear regression curve fit in GraphPad Prism 6.

Chain of Cdk14/CycY (O94921 whole entry): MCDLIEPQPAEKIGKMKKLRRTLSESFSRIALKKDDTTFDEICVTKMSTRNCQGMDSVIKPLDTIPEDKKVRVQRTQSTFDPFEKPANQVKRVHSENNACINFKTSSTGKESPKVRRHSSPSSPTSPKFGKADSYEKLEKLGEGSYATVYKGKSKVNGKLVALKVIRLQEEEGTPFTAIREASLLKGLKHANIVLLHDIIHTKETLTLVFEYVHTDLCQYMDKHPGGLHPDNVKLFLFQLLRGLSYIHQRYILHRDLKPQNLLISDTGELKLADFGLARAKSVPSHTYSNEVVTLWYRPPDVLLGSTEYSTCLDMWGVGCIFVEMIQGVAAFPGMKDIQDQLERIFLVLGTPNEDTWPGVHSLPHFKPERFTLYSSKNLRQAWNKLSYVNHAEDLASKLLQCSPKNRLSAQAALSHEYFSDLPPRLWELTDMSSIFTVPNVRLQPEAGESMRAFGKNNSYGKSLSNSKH
Chain of Cdk14/CycY (Q8ND76 whole entry partner): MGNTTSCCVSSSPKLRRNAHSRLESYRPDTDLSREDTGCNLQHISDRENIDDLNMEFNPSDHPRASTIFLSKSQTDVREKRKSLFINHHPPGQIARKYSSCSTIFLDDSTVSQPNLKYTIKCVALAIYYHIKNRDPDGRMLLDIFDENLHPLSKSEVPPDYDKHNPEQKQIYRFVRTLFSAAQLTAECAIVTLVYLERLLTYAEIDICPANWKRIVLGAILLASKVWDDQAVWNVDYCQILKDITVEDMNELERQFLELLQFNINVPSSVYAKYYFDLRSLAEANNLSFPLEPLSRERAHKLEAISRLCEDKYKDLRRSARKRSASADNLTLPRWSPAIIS

Structure (SMILES) | IC50 (Cdk14/CycY) [nM] | IC50 (HCT116 cells) [nM]
C=CC(=O)Nc1ccc(C(=O)Nc2cccc(NC(=O)c3n[nH]cc3NC(=O)c3c(Cl)cccc3Cl)c2)cc1 [FMF-03-203-1, N-(3-(4-acrylamidobenzamido)phenyl)-4-(2,6-dichlorobenzamido)-1H-pyrazole-3-carboxamide] | 609 | 6
CN(C)C/C=C/C(=O)Nc1ccc(C(=O)Nc2cccc(NC(=O)c3n[nH]cc3NC(=O)c3c(Cl)cccc3Cl)c2)cc1 [FMF-03-204-1, (E)-4-(2,6-dichlorobenzamido)-N-(3-(4-(4-(dimethylamino)but-2-enamido)benzamido)phenyl)-1H-pyrazole-3-carboxamide] | 72 | 24
C=CC(=O)Nc1cccc(C(=O)Nc2cccc(NC(=O)c3n[nH]cc3NC(=O)c3c(Cl)cccc3Cl)c2)c1 [FMF-04-011-1, N-(3-(3-acrylamidobenzamido)phenyl)-4-(2,6-dichlorobenzamido)-1H-pyrazole-3-carboxamide] | 308 | 31
C=CC(=O)Nc1ccc(C(=O)Nc2ccc(NC(=O)c3n[nH]cc3NC(=O)c3c(Cl)cccc3Cl)cc2)cc1 [FMF-04-012-1] | 169 | 8
C=CC(=O)Nc1ccc(S(=O)(=O)N2CCC[C@@H](NC(=O)c3n[nH]cc3NC(=O)c3c(Cl)cccc3Cl)C2)cc1 [FMF-04-056-1, (R)—N-(1-((4-acrylamidophenyl)sulfonyl)piperidin-3-yl)-4-(2,6-dichlorobenzamido)-1H-pyrazole-3-carboxamide] | > 1000 | > 10000
C=CC(=O)Nc1cccc(S(=O)(=O)N2CCC[C@@H](NC(=O)c3n[nH]cc3NC(=O)c3c(Cl)cccc3Cl)C2)c1 [FMF-04-057-1, (R)—N-(1-((3-acrylamidophenyl)sulfonyl)piperidin-3-yl)-4-(2,6-dichlorobenzamido)-1H-pyrazole-3-carboxamide] | 836 | > 10000
CN(C)C/C=C/C(=O)Nc1cccc(S(=O)(=O)N2CCC[C@@H](NC(=O)c3n[nH]cc3NC(=O)c3c(Cl)cccc3Cl)C2)c1 [FMF-04-057-2, (R,E)-4-(2,6-dichlorobenzamido)-N-(1-((3-(4-(dimethylamino)but-2-enamido)phenyl)sulfonyl)piperidin-3-yl)-1H-pyrazole-3-carboxamide] | > 1000 | 9840
C=CC(=O)Nc1ccc(C(=O)N2CCC[C@@H](NC(=O)c3n[nH]cc3NC(=O)c3c(Cl)cccc3Cl)C2)cc1 [FMF-04-058-1, (R)—N-(1-(4-acrylamidobenzoyl)piperidin-3-yl)-4-(2,6-dichlorobenzamido)-1H-pyrazole-3-carboxamide] | > 1000 | > 10000
CN(C)C/C=C/C(=O)Nc1ccc(C(=O)N2CCC[C@@H](NC(=O)c3n[nH]cc3NC(=O)c3c(Cl)cccc3Cl)C2)cc1 [FMF-04-058-2, (R,E)-4-(2,6-dichlorobenzamido)-N-(1-(4-(4-(dimethylamino)but-2-enamido)benzoyl)piperidin-3-yl)-1H-pyrazole-3-carboxamide] | > 1000 | 726
C=CC(=O)Nc1cccc(C(=O)N2CCC[C@@H](NC(=O)c3n[nH]cc3NC(=O)c3c(Cl)cccc3Cl)C2)c1 [FMF-04-059-1, (R)—N-(1-(3-acrylamidobenzoyl)piperidin-3-yl)-4-(2,6-dichlorobenzamido)-1H-pyrazole-3-carboxamide] | > 1000 | 4040
CN(C)C/C=C/C(=O)Nc1cccc(C(=O)N2CCC[C@@H](NC(=O)c3n[nH]cc3NC(=O)c3c(Cl)cccc3Cl)C2)c1 [FMF-04-059-2, (R,E)-4-(2,6-dichlorobenzamido)-N-(1-(3-(4-(dimethylamino)but-2-enamido)benzoyl)piperidin-3-yl)-1H-pyrazole-3-carboxamide] | > 1000 | > 10000
Cc1cc(NC(=O)c2cccc(NC(=O)/C=C/CN(C)C)c2)ccc1NC(=O)c1n[nH]cc1NC(=O)c1c(Cl)cccc1Cl [FMF-04-085-2, (E)-4-(2,6-dichlorobenzamido)-N-(4-(3-(4-(dimethylamino)but-2-enamido)benzamido)-2-methylphenyl)-1H-pyrazole-3-carboxamide] | 1160 | 320
C=CC(=O)Nc1cccc(S(=O)(=O)N2CCC(N(C)C(=O)c3n[nH]cc3NC(=O)c3c(Cl)cccc3Cl)CC2)c1 [FMF-04-086-1, N-(1-((3-acrylamidophenyl)sulfonyl)piperidin-4-yl)-4-(2,6-dichlorobenzamido)-N-methyl-1H-pyrazole-3-carboxamide] | > 1000 | > 10000
C=CC(=O)Nc1cccc(S(=O)(=O)N2CCC(NC(=O)c3nscc3NC(=O)c3c(Cl)cccc3Cl)CC2)c1 [FMF-04-089-1, N-(1-((3-acrylamidophenyl)sulfonyl)piperidin-4-yl)-4-(2,6-dichlorobenzamido)isothiazole-3-carboxamide] | > 1000 | 563
C=CC(=O)Nc1cccc(S(=O)(=O)N2CCC(NC(=O)c3c(NC(=O)c4c(Cl)cccc4Cl)cnn3C)CC2)c1 [FMF-04-120-1, N-(1-((3-acrylamidophenyl)sulfonyl)piperidin-4-yl)-4-(2,6-dichlorobenzamido)-1-methyl-1H-pyrazole-5-carboxamide] | > 1000 | 2420
C=CC(=O)Nc1cccc(CN2CCC(NC(=O)c3n[nH]cc3NC(=O)c3c(Cl)cc(Cl)cc3Cl)CC2)c1 [FMF-04-158-1, N-(1-(3-acrylamidobenzyl)piperidin-4-yl)-4-(2,4,6-trichlorobenzamido)-1H-pyrazole-3-carboxamide] | 198 | 11
CN(C)C/C=C/C(=O)Nc1cccc(CN2CCC(NC(=O)c3n[nH]cc3NC(=O)c3c(F)cccc3F)CC2)c1 [FMF-04-160-2, (E)-4-(2,6-difluorobenzamido)-N-(1-(3-(4-(dimethylamino)but-2-enamido)benzyl)piperidin-4-yl)-1H-pyrazole-3-carboxamide] | 223 | 437
C=CC(=O)Nc1cccc(S(=O)(=O)N2CCC(NC(=O)c3n[nH]c(C)c3NC(=O)c3c(Cl)cccc3Cl)CC2)c1 [FMF-04-181-1, N-(1-((3-acrylamidophenyl)sulfonyl)piperidin-4-yl)-4-(2,6-dichlorobenzamido)-5-methyl-1H-pyrazole-3-carboxamide] | > 1000 | > 10000
CN(C)C/C=C/C(=O)Nc1cccc(C(=O)Nc2cccc(NC(=O)c3n[nH]cc3NC(=O)c3c(Cl)cccc3Cl)c2)c1 [FMF-04-196-1, (E)-4-(2,6-dichlorobenzamido)-N-(3-(3-(4-(dimethylamino)but-2-enamido)benzamido)phenyl)-1H-pyrazole-3-carboxamide] | 41 | 366
C=CC(=O)Nc1cccc(CN2CCC(NC(=O)c3n[nH]cc3NC(=O)c3c(F)cc(F)cc3F)CC2)c1 [FMF-04-200-1, N-(1-(3-acrylamidobenzyl)piperidin-4-yl)-4-(2,4,6-trifluorobenzamido)-1H-pyrazole-3-carboxamide] | 31 | 1.9
C=CC(=O)Nc1cccc(S(=O)(=O)N2CCC(NC(=O)c3n[nH]cc3NC(=O)c3ccccc3)CC2)c1 [FMF-05-027-1, N-(1-((3-acrylamidophenyl)sulfonyl)piperidin-4-yl)-4-benzamido-1H-pyrazole-3-carboxamide] | 315 | 382
COc1cc(OC)c(C(=O)Nc2c[nH]nc2C(=O)NC2CCN(S(=O)(=O)c3cccc(NC(=O)/C=C/CN(C)C)c3)CC2)c(OC)c1 [FMF-05-028-2, (E)-N-(1-((3-(4-(dimethylamino)but-2-enamido)phenyl)sulfonyl)piperidin-4-yl)-4-(2,4,6-trimethoxybenzamido)-1H-pyrazole-3-carboxamide] | 221 | > 10000
C=CC(=O)Nc1cccc(S(=O)(=O)N2CC[C@@H](NC(=O)c3n[nH]cc3NC(=O)c3c(Cl)cccc3Cl)C2)c1 [FMF-05-065-1, (R)-N-(1-((3-acrylamidophenyl)sulfonyl)pyrrolidin-3-yl)-4-(2,6-dichlorobenzamido)-1H-pyrazole-3-carboxamide] | > 10000 | 467
C=CC(=O)Nc1ccc(S(=O)(=O)N2CC[C@@H](NC(=O)c3n[nH]cc3NC(=O)c3c(Cl)cccc3Cl)C2)cc1 [FMF-05-066-1, (R)—N-(1-((4-acrylamidophenyl)sulfonyl)pyrrolidin-3-yl)-4-(2,6-dichlorobenzamido)-1H-pyrazole-3-carboxamide] | > 10000 | 3000
C=CC(=O)Nc1cccc(S(=O)(=O)N2CC[C@H](NC(=O)c3n[nH]cc3NC(=O)c3c(Cl)cccc3Cl)C2)c1 [FMF-05-068-1, (S)—N-(1-((3-acrylamidophenyl)sulfonyl)pyrrolidin-3-yl)-4-(2,6-dichlorobenzamido)-1H-pyrazole-3-carboxamide] | 450 | 6200
CN(C)C/C=C/C(=O)Nc1cccc(S(=O)(=O)N2CC[C@H](NC(=O)c3n[nH]cc3NC(=O)c3c(Cl)cccc3Cl)C2)c1 [FMF-05-068-2, (S,E)-4-(2,6-dichlorobenzamido)-N-(1-((3-(4-(dimethylamino)but-2-enamido)phenyl)sulfonyl)pyrrolidin-3-yl)-1H-pyrazole-3-carboxamide] | 308 | > 10000
C=CC(=O)Nc1cccc(CN2CC[C@H](NC(=O)c3n[nH]cc3NC(=O)c3c(Cl)cccc3Cl)C2)c1 [FMF-05-069-1, (S)—N-(1-(3-acrylamidobenzyl)pyrrolidin-3-yl)-4-(2,6-dichlorobenzamido)-1H-pyrazole-3-carboxamide] | 150 | 27
